According to paper PMC12123601, “Light-Induced, Lysine-Targeting Irreversible Covalent Inhibition of the Human Oxygen Sensing Hydroxylase Factor Inhibiting HIF (FIH)” (Journal of the American Chemical Society, 2025):

Experiments:
[1] = tested on: EGLN3 expression in FIH knockdown Hep3B cells; assay: qRT-PCR of EGLN3 in FIH knockdown (siFIH) Hep3B cells; type: cell-based
Description: 5 NBA-ZG-2991 sustainably engages with FIH and regulates the expression of FIH-dependent HIF target gene EGLN3 in Hep3B cells. (A) The CETSA assay was carried out with Hep3B cells grown in the presence of NBA-ZG-2291 (50 μM) for 12–48 h after 30 min of light activation (365 nm, 16 W). The intensity of the bands for grayscale analysis was referenced to the starting temperature (37 °C). α-Actinin was the sample loading control. n = 2; mean ± SD. […] (E) Correlation heatmap of the NBA-ZG-2291-treated group and the siFIH group by RNA-sequencing analysis. […] The relative fold change with respect to DMSO treated sample is shown (with normalization to HPRT gene levels). Mean ± SEM; n = 3. (G) TG level of NBA-ZG-2291-treated 3T3-L1-derived adipocytes. Mean ± SEM; n = 3. (H) Representative Oil Red O-stained images of the control, ZG-2291-treated, and NBA-ZG-2291-treated 3T3-L1-derived adipocytes. Scale Bar, 30 μm. P values were analyzed by two-way ANOVA comparing with the vehicle/control group (*, P < 0.05; **, P < 0.01; ***, P < 0.001, ****, P < 0.0001). See Methods (Quantitative PCR Analysis of Gene Expression) for assay details. […]

[2] = biological target: FIH (Homo sapiens, UniProt Q9NWT6); assay: O-phenylenediamine (OPD) 2OG derivatization turnover assay (remaining 2OG in FIH hydroxylation system); type: biochemical; set-up: Concentration of remaining 2OG: unit: µM
Sequence of FIH (Q9NWT6 whole entry): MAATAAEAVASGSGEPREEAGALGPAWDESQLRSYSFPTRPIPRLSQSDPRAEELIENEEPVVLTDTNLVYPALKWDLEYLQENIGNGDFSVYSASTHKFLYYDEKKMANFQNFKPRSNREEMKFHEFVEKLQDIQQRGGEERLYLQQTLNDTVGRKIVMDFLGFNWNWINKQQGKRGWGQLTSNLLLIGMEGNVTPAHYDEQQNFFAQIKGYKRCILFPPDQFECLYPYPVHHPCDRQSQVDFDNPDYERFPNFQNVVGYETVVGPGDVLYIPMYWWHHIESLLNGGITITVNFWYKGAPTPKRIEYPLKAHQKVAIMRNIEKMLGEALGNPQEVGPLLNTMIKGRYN
Description: To explore whether the covalent inhibitor can effectively and sustainably prevent the hydroxylation process catalyzed by FIH, the inhibitory activities against FIH were evaluated using the fluorescent O-phenylenediamine (OPD) 2OG derivatization turnover assay (Figure S9).
Figure S9. Schematic of the O-phenylenediamine (OPD) fluorescent derivative assay6. The assay monitors depletion of 2OG.
(1 picture or pasted object on this page, not shown here) […]
pET28a vectors encoding for full-length FIH with an N-terminal His6 tag or for FIH (K106A) with an N-terminal His6 tag were purchased from Nanjing Zoonbio Biotechnology. Both the FIHWT and FIHK106A protein were expressed from the respective plasmid in Escherichia coli BL21 at 20 °C for 16 h. E. coli cells were lysed and the lysate were clarified by centrifugation. His6-tagged FIHWT or FIHK106A was purified on a HisTrap affinity column (GE Healthcare) by elution with an imidazole gradient. The final purified proteins were stored in PBS buffer. […]
Ki = I50 / [1 + ([L]50 + [P]0)/Kd] […]
3.2 O-Phenylenediamine (OPD) fluorescent derivative assay
Assays were carried out by mixing 1 mM DTT, 0.6 mg/mL of catalase, 200 μM 2-OG, 50 mM Hepes, 200 μM HIF-1α (788-807), and inhibitors at pH 7.0 to a final volume of 44 μL and incubated at 37 °C for 5 min. At the same time, FIH enzyme and iron (prepared as 200 mM stock in 20 mM HCl and diluted with water) were mixed at room temperature for 3 min. […] The reaction was stopped by the addition of 100 μL of 0.5 M HCl. After adding 50 μL of 10 mg/mL OPD in 0.5 M HCl and heating at 95 °C for 10 min, the derivatization was achieved. Then, 50 μL of the mixture centrifugated for 5 min was made basic by adding 30 μL of 1.25 M NaOH, and then fluorescence was detected by SPARK Multi-Mode Microplate Reader (Tecan). […]
Crystals were cryo -protected using mother liquor supplemented with 25%v/v glycerol before manual loop cryo -cooling in liquid N2.
Data for ligand -bound protein complexes were from single crystals at 100 K using Diamond Light Source (UK) beamlines. The FIH crystal structures were determined by molecular replacement (MR) using the AutoMR (PHASER) subroutine in PHENIX (version 1.18.2) based on the PDB ID: 1H2K crystal structure .

SMILES: O=C(O)CNC(=O)c1ncc(-c2cc(-c3ccc(CO)c([N+](=O)[O-])c3)no2)cc1O [NBA-ZG-2291]
- Effect on EGLN3 expression when FIH was knocked down [1]: no significant effect on EGLN3 expression
- Inhibition of FIH hydroxylation activity on the HIF peptide (2OG consumption) ([2]; compared to ZG-2291): more potent and sustained inhibition of FIH hydroxylation activity
- Concentration of remaining 2OG ([2]; inhibitor 0.14 μM, incubation 0 min, 200 μM 2-OG at start): 200.0
- Concentration of remaining 2OG ([2]; inhibitor 0.14 μM, incubation 15 min): 187.5
- Concentration of remaining 2OG ([2]; inhibitor 0.14 μM, incubation 30 min): 184.6
- Concentration of remaining 2OG ([2]; inhibitor 0.14 μM, incubation 1 h): 174.8
- Concentration of remaining 2OG ([2]; inhibitor 0.14 μM, incubation 4 h): 163.1
- Concentration of remaining 2OG ([2]; inhibitor 0.41 μM, incubation 0 min, 200 μM 2-OG at start): 200.0
- Concentration of remaining 2OG ([2]; inhibitor 0.41 μM, incubation 15 min): 189.1
- Concentration of remaining 2OG ([2]; inhibitor 0.41 μM, incubation 30 min): 188.8
- Concentration of remaining 2OG ([2]; inhibitor 0.41 μM, incubation 1 h): 184.6
- Concentration of remaining 2OG ([2]; inhibitor 0.41 μM, incubation 4 h): 171.6
- Concentration of remaining 2OG ([2]; inhibitor 1.23 μM, incubation 0 min, 200 μM 2-OG at start): 200.0
- Concentration of remaining 2OG ([2]; inhibitor 1.23 μM, incubation 15 min): 191.6
- Concentration of remaining 2OG ([2]; inhibitor 1.23 μM, incubation 30 min): 190.6
- Concentration of remaining 2OG ([2]; inhibitor 1.23 μM, incubation 1 h): 187.9
- Concentration of remaining 2OG ([2]; inhibitor 1.23 μM, incubation 4 h): 182.8
- Concentration of remaining 2OG ([2]; inhibitor 3.70 μM, incubation 0 min, 200 μM 2-OG at start): 200.0
- Concentration of remaining 2OG ([2]; inhibitor 3.70 μM, incubation 15 min): 194.0
- Concentration of remaining 2OG ([2]; inhibitor 3.70 μM, incubation 30 min): 193.5
- Concentration of remaining 2OG ([2]; inhibitor 3.70 μM, incubation 1 h): 189.6
- Concentration of remaining 2OG ([2]; inhibitor 3.70 μM, incubation 4 h): 185.3
- Concentration of remaining 2OG ([2]; inhibitor 11.1 μM, incubation 0 min, 200 μM 2-OG at start): 200.0
- Concentration of remaining 2OG ([2]; inhibitor 11.1 μM, incubation 15 min): 199.7
- Concentration of remaining 2OG ([2]; inhibitor 11.1 μM, incubation 30 min): 198.7
- Concentration of remaining 2OG ([2]; inhibitor 11.1 μM, incubation 1 h): 197.8
- Concentration of remaining 2OG ([2]; inhibitor 11.1 μM, incubation 4 h): 197.2
- Concentration of remaining 2OG ([2]; inhibitor 33.3 μM, incubation 0 min, 200 μM 2-OG at start): 200.0
- Concentration of remaining 2OG ([2]; inhibitor 33.3 μM, incubation 15 min): 200.8
- Concentration of remaining 2OG ([2]; inhibitor 33.3 μM, incubation 30 min): 198.7
- Concentration of remaining 2OG ([2]; inhibitor 33.3 μM, incubation 1 h): 197.6
- Concentration of remaining 2OG ([2]; inhibitor 33.3 μM, incubation 4 h): 197.3
- Concentration of remaining 2OG ([2]; inhibitor 100 μM, incubation 0 min, 200 μM 2-OG at start): 200.0
- Concentration of remaining 2OG ([2]; inhibitor 100 μM, incubation 15 min): 200.1
- Concentration of remaining 2OG ([2]; inhibitor 100 μM, incubation 30 min): 199.2
- Concentration of remaining 2OG ([2]; inhibitor 100 μM, incubation 1 h): 198.5
- Concentration of remaining 2OG ([2]; inhibitor 100 μM, incubation 4 h): 198.3
- Concentration of remaining 2OG ([2]; inhibitor 300 μM, incubation 0 min, 200 μM 2-OG at start): 200.0
- Concentration of remaining 2OG ([2]; inhibitor 300 μM, incubation 15 min): 201.4
- Concentration of remaining 2OG ([2]; inhibitor 300 μM, incubation 30 min): 199.5
- Concentration of remaining 2OG ([2]; inhibitor 300 μM, incubation 1 h): 199.2
- Concentration of remaining 2OG ([2]; inhibitor 300 μM, incubation 4 h): 198.6
